Measured values: PubChem BioAssay (NCI)
Several values for one entry are separate records, joined by “and”; a condition that tells them apart may be missing. Identical values can stand only once.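 Cells were grown in 96-well plates and exposed to each compound for 48 hours at five concentrations; endpoints were interpolated linearly between bracketing concentrations, or set to the highest concentration if not reached. At the GI50, growth is halved. Definition used: TGI = concentration required for complete inhibition of growth.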

Experiments:
Experiment in all cases: growth of human tumour cells (NCI), 48 h
COLO 205 colon = tested on: COLO 205 colon
EKVX NSCLC = tested on: EKVX NSCLC
HL-60(TB) leukemia = tested on: HL-60(TB) leukemia
K-562 leukemia = tested on: K-562 leukemia
MDA-MB-435 = tested on: MDA-MB-435
RXF 393 renal = tested on: RXF 393 renal
SF-268 CNS = tested on: SF-268 CNS
SK-MEL-5 melanoma = tested on: SK-MEL-5 melanoma
UACC-257 melanoma = tested on: UACC-257 melanoma
OVCAR-4 ovarian = tested on: OVCAR-4 ovarian

Structure (SMILES) | GI50 (COLO 205 colon) | TGI (COLO 205 colon) | GI50 (EKVX NSCLC) | TGI (EKVX NSCLC) | GI50 (HL-60(TB) leukemia) | TGI (HL-60(TB) leukemia) | GI50 (K-562 leukemia) | TGI (K-562 leukemia) | GI50 (MDA-MB-435) | TGI (MDA-MB-435) | GI50 (RXF 393 renal) | TGI (RXF 393 renal) | GI50 (SF-268 CNS) | TGI (SF-268 CNS) | GI50 (SK-MEL-5 melanoma) | TGI (SK-MEL-5 melanoma) | GI50 (UACC-257 melanoma) | TGI (UACC-257 melanoma) | GI50 (OVCAR-4 ovarian) | TGI (OVCAR-4 ovarian)
CC(=O)Oc1ccc2c(c1)[C@@]1(C)CCCC(C)(C)[C@@H]1CC2 | 21.9 µM | 53.6 µM | 26 µM | 62.1 µM | 34.7 µM | > 100 µM | 40 µM | > 100 µM | 16.8 µM | 40 µM | 41.2 µM | 86.3 µM | 20.9 µM | 47.9 µM | 30.9 µM | 73.6 µM | 18.2 µM | 43.6 µM | – | –
COc1cccc(-c2nn(-c3ccccc3)cc2-c2ccnc(NCCCNC(=O)c3cccc(C(F)(F)F)c3)c2)c1 | 3.33 µM | 12.4 µM | 5.01 µM | 36.2 µM | 3.27 µM | 13.1 µM | 3.69 µM | 31.3 µM | 3.27 µM | 17.1 µM | 2.2 µM | 7.52 µM | 9.51 µM | 87.8 µM | 1.54 µM | 3.34 µM | 4.4 µM | 15.8 µM | 4.22 µM | 32.2 µM
Cc1ccc(Nc2cc(Cl)c([N+](=O)[O-])cc2[N+](=O)[O-])cc1 | 2.11 µM | 3.92 µM | 14.7 µM | 29.7 µM | 3.62 µM | 14.6 µM | 0.614 µM | > 100 µM | 3.07 µM | 10.8 µM | 2.57 µM | 6.66 µM | 3.63 µM | 10.3 µM | 3.19 µM | 9.51 µM | 5.25 µM | 15.7 µM | 4.52 µM | 16.2 µM
c1ccc(CN2CCc3[nH]c4ccccc4c3C2)cc1 | – | 31.9 µM | – | > 86.8 µM | – | 46.3 µM | – | 55.1 µM | – | 46.7 µM | – | > 100 µM | – | > 86.8 µM | – | 31.3 µM | – | 37.1 µM | – | 84.4 µM
NCCCOc1cc2ccccc2cc1C(=O)Nc1ccc(Cl)cc1OC(=O)c1cc2ccccc2cc1OCCCN | 1.27 µM | 2.63 µM | – | – | 0.517 µM | 2.37 µM | – | – | 0.961 µM | 3.96 µM | 0.61 µM | 1.69 µM | 0.922 µM | 2.44 µM | 1.23 µM | 2.49 µM | 1.01 µM | 2.32 µM | 0.146 µM | 0.306 µM
N#Cc1ccc(-c2c(-c3ncn[nH]3)sc(N3CCOCC3)c2C#N)c(F)c1 | 0.687 µM | 15.6 µM | – | – | 0.781 µM | > 100 µM | 5.52 µM | > 100 µM | 0.995 µM | 17 µM | 0.246 µM | 1.68 µM | 0.507 µM | 59.1 µM | 2.29 µM | 13.7 µM | 0.418 µM | 8.85 µM | 2.82 µM | 36.6 µM
C=C1c2ccccc2C(=O)c2c1c1c(C(=O)OC)c(OC(=O)OCc3ccc([N+](=O)[O-])cc3)ccc1n2Cc1ccccc1 | 32.4 µM | > 100 µM | 33.6 µM | > 100 µM | – | – | 2.55 µM | > 100 µM | 23.5 µM | > 100 µM | 3.1 µM | > 100 µM | 46.4 µM | > 100 µM | 29.1 µM | 64.3 µM | 29.8 µM | > 100 µM | 23.2 µM | > 100 µM
COc1cc(Cl)cc(-c2nn(-c3cccc(NC(=O)Nc4cccc(C(F)(F)F)c4)c3)cc2-c2ccncc2)c1 | 1.53 µM | 3.17 µM | – | – | 1.91 µM | 5.51 µM | 0.824 µM | 14.4 µM | 1.74 µM | 3.82 µM | 1.4 µM | 4.35 µM | 2.56 µM | 17.1 µM | 1.48 µM | 2.84 µM | 1.75 µM | 4.65 µM | 2.54 µM | 38.8 µM
CCCCCCCCCCCCCCCCCCNCc1ccc(Cl)cc1 | 1.96 µM | 4 µM | 3.84 µM | 18.7 µM | 1.55 µM | 3.94 µM | – | – | 3.45 µM | 15.6 µM | 3.39 µM | 15.8 µM | 3.82 µM | 18.2 µM | 15.7 µM | 30.3 µM | 18.6 µM | 36 µM | 1.99 µM | 4.76 µM
NC(=S)N=Nc1c(O)[nH]c2c(Cl)cc(Cl)cc12 | – | 41.8 µM | – | > 100 µM | – | 49.6 µM | – | > 100 µM | – | 34 µM | – | 33.7 µM | – | – | – | 28.2 µM | – | 86.2 µM | – | > 100 µM
Nc1ccccc1C#C/C=C\C#CC#C/C=C\C#Cc1ccccc1N | 13.5 µM | 35.9 µM | 7.84 µM | 28.4 µM | – | – | 0.781 µM | > 100 µM | 2.85 µM | 9.72 µM | 2.18 µM | 6.22 µM | 5.93 µM | 26.2 µM | 8.43 µM | 22.9 µM | 8.96 µM | 32.4 µM | 14.6 µM | 92.8 µM
CC(C)(C)OC(=O)NCCCCn1c2c(c3ccccc3c1=O)C(=O)c1ccccc1-2 | 44 µM | > 100 µM | 61.5 µM | > 100 µM | 4.71 µM | 59.4 µM | 24.8 µM | > 100 µM | 35.3 µM | > 100 µM | 23.1 µM | > 100 µM | 20.9 µM | > 100 µM | – | – | 29.7 µM | 71.1 µM | 47.8 µM | > 100 µM
N#CC1=C(N)NC(=S)NC1c1ccc(-c2ccc(-c3nc4ccccc4o3)cc2)s1 (configuration not stated) | 11.3 µM | 33.4 µM | 14 µM | 48.2 µM | 24.1 µM | > 50 µM | 4.7 µM | 15.5 µM | 16.5 µM | 48.5 µM | – | – | 10.7 µM | 26.5 µM | 9.14 µM | 18.3 µM | 11.2 µM | 26.8 µM | – | –
Nc1ncnc2c1ncn2C1OC(COS(N)(=O)=O)C(O)C1O (configuration not stated) | 0.00239 µM and 0.0219 µM | 0.00508 µM and 0.0432 µM | – | – | < 0.001 µM | 0.00378 µM | – | – | 0.00184 µM and 0.018 µM | 0.00356 µM and 0.0355 µM | – | – | – | – | 0.00177 µM and 0.0175 µM | 0.00336 µM and 0.0321 µM | – | – | 0.00118 µM | 0.00718 µM and 0.0357 µM
